# Key:
# L-Db cells = assay type: cell-based, Murine; details: BFA; functional TAP complex; Fig. 6 a
# T2-Db cells [1] = assay: 4-h 51Cr CTL assay, clone F5, T2-Db cells with added synthetic peptide; assay type: cell-based
# T2-Db cells [2] = assay type: cell-based; details: chloroquine: preincubation 80 μM, infection 60 μM, assay 5 μM; Fig. 6
# [3] = T2-Db lysate with protease inhibitors; Fig. 5
# T2-Kk cells = assay type: cell-based; details: Kk-restricted anti-[…] line, E:T 10:1, Fig. 9 e
molecule,measurement,setting,value
"C[C@H]1CCC/C=C/[C@@H]2C[C@H](O)C[C@H]2[C@H](O)/C=C/C(=O)O1 [BFA, brefeldin A]",effect on presentation of L+ and L- polypeptides in L-Db cells,L-Db cells,Inhibition of presentation of both the L+ and L-polypeptides in L-Db cells
QIASNENMDAM [364-374],loss of potency in sensitizing T2-Db cells for lysis (fold less potent),T2-Db cells [1]; Fig. 3 a,"over 10,000 fold"
CCN(CC)CCCC(C)Nc1ccnc2cc(Cl)ccc12 (stereo not drawn) [chloroquine],effect on processing and presentation of L+M364 and L+IMP in T2-Db cells,T2-Db cells [2],no effect
MASNENMDAM [M366-374],in vitro degradation after cell lysis,[3],Little in vitro degradation of M366-374 occurs after cell lysis
SDYEGRLI,lowest peptide concentration at which pulsed T2 transfectants are recognized,T2-Kk cells,≤ 0.5 nM
IASNENMDAM [365-374],relative potency in sensitizing T2-Db cells for lysis,"T2-Db cells [1]; relative to 366-374, Fig. 3 a",followed by 365-374

# Reference: PMC2191966 (The Journal of Experimental Medicine, 1995)
